Assays:
Test in all cases: relative viability (nuclei count vs DMSO), 5 days (fraction); higher = more cells survive
XMD8-85 + Tozasertib = compound: CN1CCN(CC1)C2=CC(=C(C=C2)NC3=NC=C4C(=N3)N(C5=CC=CC=C5C(=O)N4C)C)OC [XMD8-85] + Cc1cc(Nc2cc(N3CCN(C)CC3)nc(Sc3ccc(NC(=O)C4CC4)cc3)n2)n[nH]1 [Tozasertib] (partner 0.1 µM)
Method in brief: (§1)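 Nuclei were stained with Hoechst during a one-step fixation (final 0.05% Triton X-100, 1% formaldehyde, 1 ug/ml Hoechst) carried out 5 days after dosing, then counted on 4× images. The cells, lung cancer lines in 1536-well plates, had been dosed by pin tool the day after seeding with one drug alone or a fixed anchor-drug dose plus five library-drug doses (not always all listed) in √10 steps. Relative viability is the nuclei count in treated wells divided by that in vehicle wells, and each value is the median of duplicate plates.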

XMD8-85 + Phenformin = compound: CN1CCN(CC1)C2=CC(=C(C=C2)NC3=NC=C4C(=N3)N(C5=CC=CC=C5C(=O)N4C)C)OC [XMD8-85] + N=C(N)NC(=N)NCCc1ccccc1 [Phenformin] (partner 250 µM)
Method in brief: as §1

4EGI-1 + Bortezomib = compound: O=C(O)C(Cc1ccccc1[N+](=O)[O-])=NNc1nc(-c2ccc(Cl)c(Cl)c2)cs1 (mixture of isomers) [4EGI-1] + CC(C)C[C@H](NC(=O)[C@H](Cc1ccccc1)NC(=O)c1cnccn1)B(O)O [Bortezomib] (partner 0.002 µM)
Method in brief: as §1

4EGI-1 + Lapatinib = compound: O=C(O)C(Cc1ccccc1[N+](=O)[O-])=NNc1nc(-c2ccc(Cl)c(Cl)c2)cs1 (mixture of isomers) [4EGI-1] + CS(=O)(=O)CCNCc1ccc(-c2ccc3ncnc(Nc4ccc(OCc5cccc(F)c5)c(Cl)c4)c3c2)o1 [Lapatinib] (partner 2 µM)
Method in brief: as §1

| Cell Line | relative viability (XMD8-85 + Tozasertib; first compound 0.08 µM) | relative viability (XMD8-85 + Tozasertib; first compound 0.253 µM) | relative viability (XMD8-85 + Tozasertib; first compound 0.8 µM) | relative viability (XMD8-85 + Tozasertib; first compound 2.53 µM) | relative viability (XMD8-85 + Tozasertib; first compound 8 µM) | relative viability (XMD8-85 + Phenformin; first compound 0.08 µM) | relative viability (XMD8-85 + Phenformin; first compound 0.253 µM) | relative viability (XMD8-85 + Phenformin; first compound 0.8 µM) | relative viability (XMD8-85 + Phenformin; first compound 2.53 µM) | relative viability (XMD8-85 + Phenformin; first compound 8 µM) | relative viability (4EGI-1 + Bortezomib; first compound 0.5 µM) | relative viability (4EGI-1 + Bortezomib; first compound 1.581 µM) | relative viability (4EGI-1 + Bortezomib; first compound 5 µM) | relative viability (4EGI-1 + Bortezomib; first compound 15.81 µM) | relative viability (4EGI-1 + Bortezomib; first compound 50 µM) | relative viability (4EGI-1 + Lapatinib; first compound 0.5 µM) | relative viability (4EGI-1 + Lapatinib; first compound 1.581 µM) | relative viability (4EGI-1 + Lapatinib; first compound 5 µM) | relative viability (4EGI-1 + Lapatinib; first compound 15.81 µM) | relative viability (4EGI-1 + Lapatinib; first compound 50 µM) |
| --- | --- | --- | --- | --- | --- | --- | --- | --- | --- | --- | --- | --- | --- | --- | --- | --- | --- | --- | --- | --- |
| NCI-H727 | 0.55 | 0.588 | 0.6 | 0.458 | 0.47 | 0.503 | 0.547 | 0.523 | 0.524 | 0.456 | 0.985 | 0.874 | 0.652 | 0.722 | 0.442 | 0.96 | 0.712 | 0.96 | 0.724 | 0.391 |
| LCLC-103H | 0.451 | 0.449 | 0.581 | 0.45 | 0.383 | 0.329 | 0.34 | 0.36 | 0.372 | 0.303 | 1.03 | 0.964 | 0.98 | 0.955 | 0.959 |  |  |  |  |  |
| ABC-1 | 0.142 | 0.159 | 0.19 | 0.15 | 0.231 | 0.221 | 0.245 | 0.248 | 0.234 | 0.229 | 0.344 | 0.291 | 0.319 | 0.285 | 0.214 | 1.06 | 1.46 | 1.24 | 1.17 | 1.16 |
| NCI-H3122 | 0.427 | 0.453 | 0.373 | 0.237 | 0.177 | 0.388 | 0.383 | 0.389 | 0.373 | 0.32 | 1.07 | 0.975 | 0.918 | 1.06 | 0.352 | 1.05 | 0.922 | 1.02 | 0.955 | 0.578 |
| NCI-H1648 | 0.438 | 0.394 |  |  | 0.324 |  |  |  |  |  |  |  |  |  |  |  |  |  |  |  |
| NCI-H1703 |  |  |  |  |  |  |  |  |  |  | 0.403 | 0.363 | 0.446 | 0.365 | 0.201 | 1.46 | 0.955 | 1.17 | 1.22 | 0.437 |
| HOP-62 | 0.371 | 0.342 | 0.403 | 0.301 | 0.177 | 0.595 | 0.535 | 0.659 | 0.683 | 0.469 | 1.32 |  | 1.03 | 1.06 | 0.45 | 1.06 |  | 1.08 | 0.961 | 0.362 |
| NCI-H2405 | 0.705 | 0.749 | 0.742 | 0.694 | 0.485 | 0.391 | 0.391 | 0.366 | 0.381 | 0.228 | 0.972 | 0.858 | 0.949 | 0.992 | 0.79 | 1.27 | 0.801 | 1.23 | 1.09 | 0.685 |

From the supplement of paper PMC10307832
